From patent US7138361B2, “Herbicidal heterocycles” (E. I. du Pont de Nemours and Company, priority 2000, dated 2006)

How the values were obtained:
Assay in all cases: Test C preemergence
Assay type in all cases: in vivo
Nightshade = test system: Nightshade
[1] = test system: pigweed (Amaranthus retroflexus)
Summary of the method: (§1)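 Each compound was dissolved in a non-phytotoxic solvent system containing a surfactant and sprayed either on freshly planted seeds (preemergence) or on young plants, 2 to 18 cm high (postemergence). Ratings after 12 to 14 greenhouse days ran from 0, no effect, to 100, complete control.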

kochia (Kochia scoparia) = test system: kochia (Kochia scoparia)
Summary of the method: as §1

Sunflower [2] = conditions: Rate 125 g/ha; scale 0 to 100, 0 no effect, 100 complete control
soybean (Glycine max) = test system: soybean (Glycine max)
Summary of the method: as §1

[3] = test system: Surinam grass (Brachiaria decumbens)
Summary of the method: as §1

[4] = test system: giant foxtail (Setaria faberii)
Summary of the method: as §1

[5] = test system: johnsongrass (Sorghum halepense)
Summary of the method: as §1

corn (Zea mays) = test system: corn (Zea mays)
Summary of the method: as §1

[6] = test system: velvetleaf (Abutilon theophrasti)
Summary of the method: as §1

[7] = test system: common ragweed (Ambrosia elatior)
Summary of the method: as §1

[8] = test system: bermudagrass (Cynodon dactylon)
Summary of the method: as §1

[9] = test system: cocklebur (Xanthium strumarium)
Summary of the method: as §1

[10] = test system: morningglory (Ipomoea hederacea)
Summary of the method: as §1

[11] = test system: lambsquarters (Chenopodium album)
Summary of the method: as §1

[12] = test system: crabgrass (Digitaria sanguinalis)
Summary of the method: as §1

[13] = test system: woolly cupgrass (Eriochloa villosa)
Summary of the method: as §1

[14] = test system: goosegrass (Eleusine indica)
Summary of the method: as §1

[15] = test system: yellow nutsedge (Cyperus esculentus)
Summary of the method: as §1

Sunflower [16] = conditions: Rate 250 g/ha, scale 0 to 100, 0 no effect, 100 complete control
[17] = Rate 125 g/ha, scale 0 to 100, 0 no effect, 100 complete control
[18] = Rate 250 g/ha, scale 0 to 100, 0 no effect, 100 complete control
[19] = preemergence, Rate 62 g/ha, scale 0 to 100
[20] = preemergence, Rate 500 g/ha, visual evaluation after 12 to 14 days
[21] = preemergence, Rate 250 g/ha, scale 0 to 100, 0 no effect, 100 complete control
[22] = preemergence, Rate 31 g/ha, scale 0 to 100

SMILES: CCCOc1cc(N2CCC(n3ccc(C(C)(C)C)n3)C2=O)ccc1C (centres unmarked) [Compound 107]
- Plant response rating, Nightshade (Nightshade; Rate 62 g/ha, scale 0 to 100): 80
- Plant response rating, Nightshade (Nightshade; [17]): 90
- Plant response rating, Nightshade (Nightshade; [18]): 90
- Plant response rating, Pigweed [1, 17]: 0
- Plant response rating, Pigweed [1, 19]: 90
- Plant response rating (0 to 100), Pigweed [1, 20]: 100
- Plant response rating, Pigweed [1, 21]: 0
- Plant response rating, Kochia (kochia (Kochia scoparia); [17]): 70
- Plant response rating, Kochia (kochia (Kochia scoparia); [19]): 70
- Plant response rating (0 to 100), Kochia (kochia (Kochia scoparia); [20]): 100
- Plant response rating, Kochia (kochia (Kochia scoparia); [21]): 85
- Plant response rating, Sunflower (Sunflower [2]): 0
- Plant response rating, Soybean (soybean (Glycine max); [17]): 30
- Plant response rating, Soybean (soybean (Glycine max); [19]): 30
- Plant response rating (0 to 100), Soybean (soybean (Glycine max); [20]): 60
- Plant response rating, Soybean (soybean (Glycine max); [21]): 40
- Plant response rating, Surinam grass [3, 17]: 0
- Plant response rating, Surinam grass [3, 19]: 0
- Plant response rating (0 to 100), Surinam grass [3, 20]: 0
- Plant response rating, Surinam grass [3, 21]: 0
- Plant response rating, Foxtail, Giant [4, 17]: 100
- Plant response rating, Foxtail, Giant [4, 19]: 100
- Plant response rating (0 to 100), Foxtail, Giant [4, 20]: 100
- Plant response rating, Foxtail, Giant [4, 21]: 100
- Plant response rating, Johnsongrass [5, 17]: 20
- Plant response rating (0 to 100), Johnsongrass [5, 20]: 50
- Plant response rating, Johnsongrass [5, 21]: 50
- Plant response rating, Corn (corn (Zea mays); [17]): 0
- Plant response rating, Corn (corn (Zea mays); [19]): 0
- Plant response rating (0 to 100), Corn (corn (Zea mays); [20]): 10
- Plant response rating, Corn (corn (Zea mays); [21]): 0
- Plant response rating, Velvetleaf [6, 17]: 50
- Plant response rating, Velvetleaf [6, 19]: 40
- Plant response rating (0 to 100), Velvetleaf [6, 20]: 100
- Plant response rating, Velvetleaf [6, 21]: 50
- Plant response rating, Ragweed, Common [7, 17]: 30
- Plant response rating, Ragweed, Common [7, 19]: 0
- Plant response rating (0 to 100), Ragweed, Common [7, 20]: 70
- Plant response rating, Ragweed, Common [7, 21]: 60
- Plant response rating, Bermudagrass [8, 17]: 100
- Plant response rating, Bermudagrass [8, 19]: 85
- Plant response rating (0 to 100 where 0 is no effect and 100 is complete control), Bermudagrass [8, 20]: 100
- Plant response rating, Bermudagrass [8, 21]: 100
- Plant response rating, Cocklebur [9, 17]: 0
- Plant response rating, Cocklebur [9, 19]: 0
- Plant response rating (0 to 100), Cocklebur [9, 20]: 0
- Plant response rating, Cocklebur [9, 21]: 0
- Plant response rating, Morningglory [10, 17]: 0
- Plant response rating, Morningglory [10, 19]: 0
- Plant response rating (0 to 100), Morningglory [10, 20]: 100
- Plant response rating, Morningglory [10, 21]: 0
- Plant response rating, Lambsquarters [11, 17]: 100
- Plant response rating, Lambsquarters [11, 19]: 90
- Plant response rating (0 to 100), Lambsquarters [11, 20]: 100
- Plant response rating, Lambsquarters [11, 21]: 100
- Plant response rating, Crabgrass [12, 17]: 100
- Plant response rating, Crabgrass [12, 19]: 100
- Plant response rating (0 to 100), Crabgrass [12, 20]: 100
- Plant response rating, Crabgrass [12, 21]: 100
- Plant response rating, Cupgrass, Woolly [13, 17]: 60
- Plant response rating, Cupgrass, Woolly [13, 19]: 50
- Plant response rating (0 to 100), Cupgrass, Woolly [13, 20]: 80
- Plant response rating, Cupgrass, Woolly [13, 21]: 80
- Plant response rating, Goosegrass [14, 17]: 70
- Plant response rating, Goosegrass [14, 19]: 10
- Plant response rating (0 to 100), Goosegrass [14, 20]: 100
- Plant response rating, Goosegrass [14, 21]: 80
- Plant response rating, Nutsedge [15, 17]: 0
- Plant response rating, Nutsedge [15, 19]: 0
- Plant response rating (0 to 100), Nutsedge [15, 20]: 0
- Plant response rating, Nutsedge [15, 21]: 0
- Plant response rating, Sunflower (Sunflower [16]): 40

SMILES: Cc1ccc(N2CCC(n3ccc(C(C)(C)C)n3)C2=O)cc1OCCCl (centres unmarked) [Compound 109]
- Plant response rating, Nightshade (Nightshade; Rate 31 g/ha, scale 0 to 100): 50
- Plant response rating, Nightshade (Nightshade; Rate 62 g/ha, scale 0 to 100): 90
- Plant response rating, Nightshade (Nightshade; [17]): 100
- Plant response rating, Nightshade (Nightshade; [18]): 100
- Plant response rating, Pigweed [1, 17]: 70
- Plant response rating, Pigweed [1, 22]: 20
- Plant response rating, Pigweed [1, 19]: 20
- Plant response rating, Pigweed [1, 21]: 80
- Plant response rating, Kochia (kochia (Kochia scoparia); [17]): 100
- Plant response rating, Kochia (kochia (Kochia scoparia); [22]): 90
- Plant response rating, Kochia (kochia (Kochia scoparia); [19]): 100
- Plant response rating, Kochia (kochia (Kochia scoparia); [21]): 100
- Plant response rating, Sunflower (Sunflower [2]): 90
- Plant response rating, Soybean (soybean (Glycine max); [17]): 90
- Plant response rating, Soybean (soybean (Glycine max); [22]): 20
- Plant response rating, Soybean (soybean (Glycine max); [19]): 80
- Plant response rating, Soybean (soybean (Glycine max); [21]): 90
- Plant response rating, Surinam grass [3, 17]: 80
- Plant response rating, Surinam grass [3, 22]: 0
- Plant response rating, Surinam grass [3, 19]: 0
- Plant response rating, Surinam grass [3, 21]: 90
- Plant response rating, Foxtail, Giant [4, 17]: 20
- Plant response rating, Foxtail, Giant [4, 22]: 0
- Plant response rating, Foxtail, Giant [4, 19]: 0
- Plant response rating, Foxtail, Giant [4, 21]: 90
- Plant response rating, Johnsongrass [5, 17]: 50
- Plant response rating, Johnsongrass [5, 22]: 0
- Plant response rating, Johnsongrass [5, 19]: 10
- Plant response rating, Johnsongrass [5, 21]: 50
- Plant response rating, Corn (corn (Zea mays); [17]): 0
- Plant response rating, Corn (corn (Zea mays); [22]): 0
- Plant response rating, Corn (corn (Zea mays); [19]): 0
- Plant response rating, Corn (corn (Zea mays); [21]): 0
- Plant response rating, Velvetleaf [6, 17]: 100
- Plant response rating, Velvetleaf [6, 22]: 50
- Plant response rating, Velvetleaf [6, 19]: 100
- Plant response rating, Velvetleaf [6, 21]: 100
- Plant response rating, Ragweed, Common [7, 17]: 100
- Plant response rating, Ragweed, Common [7, 22]: 10
- Plant response rating, Ragweed, Common [7, 19]: 90
- Plant response rating, Ragweed, Common [7, 21]: 100
- Plant response rating, Bermudagrass [8, 17]: 100
- Plant response rating, Bermudagrass [8, 22]: 100
- Plant response rating, Bermudagrass [8, 19]: 100
- Plant response rating, Bermudagrass [8, 21]: 100
- Plant response rating, Cocklebur [9, 17]: 30
- Plant response rating, Cocklebur [9, 22]: 0
- Plant response rating, Cocklebur [9, 19]: 0
- Plant response rating, Cocklebur [9, 21]: 30
- Plant response rating, Morningglory [10, 17]: 100
- Plant response rating, Morningglory [10, 22]: 30
- Plant response rating, Morningglory [10, 19]: 90
- Plant response rating, Morningglory [10, 21]: 100
- Plant response rating, Lambsquarters [11, 17]: 100
- Plant response rating, Lambsquarters [11, 22]: 100
- Plant response rating, Lambsquarters [11, 19]: 100
- Plant response rating, Lambsquarters [11, 21]: 100
- Plant response rating, Crabgrass [12, 17]: 100
- Plant response rating, Crabgrass [12, 22]: 100
- Plant response rating, Crabgrass [12, 19]: 100
- Plant response rating, Crabgrass [12, 21]: 100
- Plant response rating, Cupgrass, Woolly [13, 17]: 90
- Plant response rating, Cupgrass, Woolly [13, 22]: 10
- Plant response rating, Cupgrass, Woolly [13, 19]: 90
- Plant response rating, Cupgrass, Woolly [13, 21]: 100
- Plant response rating, Goosegrass [14, 17]: 100
- Plant response rating, Goosegrass [14, 22]: 90
- Plant response rating, Goosegrass [14, 19]: 100
- Plant response rating, Goosegrass [14, 21]: 100
- Plant response rating, Nutsedge [15, 17]: 0
- Plant response rating, Nutsedge [15, 22]: 0
- Plant response rating, Nutsedge [15, 19]: 0
- Plant response rating, Nutsedge [15, 21]: 0
- Plant response rating, Sunflower (Sunflower [16]): 90
